# Data published in publication PMC12560828, “Chemical structure drives developmental toxicity of alkyl-substituted naphthalenes in zebrafish” (Environment international, 2025).
# Legend:
# [1] = test system: zebrafish embryos, gene expression at 48 hpf; assay: Targeted transcriptomics (TempO-Seq S1500+ zebrafish panel), differential expression; assay type: in vivo, Danio rerio; settings: 20 μM, result in words
# Procedure: Targeted transcriptomics were performed using the Biospyder™ TempO-Seq™ 96-well plate platform. This platform used detector oligos for a gene set of 3112 probes selected through data driven approaches and expert curation ([Balik-Meisner et al., 2019]). The targeted transcriptomics approach was selected to maximize the number of chemicals that could be included in the analysis while managing cost and data analysis requirements. Targeted transcriptomics were limited to 96 samples, three chemicals without morphological effects were excluded from the analysis to ensure n = 4 per chemical and n = 6 controls, excluded chemicals are indicated in SI-T3.
# A single exposure concentration of 20 μM was chosen as the maximum possible concentration to elicit a biological response that also ensured enough viable animals for RNA collection for every chemical. The same concentration per chemical was chosen as opposed to a phenotypically anchored concentration due to variability in 48 hpf survival across chemicals at the same 120 hpf percent effect and to allow for a direct comparison of chemical potency and transcriptomic response. 48 hpf was chosen to ensure the measurement of transcriptomic responses prior to the emergence of observable phenotypic effects. This timepoint has been used extensively and enhanced the ability to compare our results across datasets. Exposure was conducted over two days, chemicals were split into day groups by numerical order of randomly generated internal labels, 11 chemicals and control each day, n = 48 embryos across six vials per treatment. Exposure was conducted as previously described in section 2.3. At 48 hpf embryos were collected for RNA extraction. Embryos from two exposure vials were kept for morphological effect assessments which were as expected based on screening results. From the remaining wells, six phenotypically normal embryos were collected and pooled in their vial groups into 1.5 mL Eppendorf tubes, placed on ice (~30 sec), excess medium was removed, placed back on ice (~30 sec), and 200 μL RNA shield was added. […] of n = 6 pooled embryos were collected from each treatment.
# RNA was extracted from exposure groups on day one and day two. 100 μL of lysis buffer was added to each tube containing pooled embryo samples and 200 μL of RNA shield, the full contents of the tube were then transferred to the homogenization plate (2 mL deep 96-well plate pre-filled with 400 μL 1 mm zirconium beads and 500 μL of lysis buffer). The plate was homogenized for 1.5 min using the Mini-BeadBeater 96 (BioSpec Products, Bartlesville, OK, United States) and centrifuged for five min at 3000 rcf. 550 μL of the supernatant was distributed over two plates, each pre-filled with 275 μL of ethanol. RNA extraction was performed using the KingFisher Apex System (ThermoFisher Scientific, Waltham, MA, United States) and Quick-RNA Magbead kit (Zymo Research Corporation, Irvine, CA, Untied States). Briefly, this automated process uses Mag beads to collect RNA from the sample, after a series of washes and treatment with DNase the RNA is eluted in 50 μL of ultra-pure water. RNA quality was assessed using the 4150 TapeStation System (Agilent, Santa Clara, CA, United States). All samples used had RNA integrity number (RIN) scores >9.8. RNA concentration was determined using Quant-iT RNA Reagent and assay kit and Varioskan ALF multi-mode plate reader (ThermoFisher Scientific, Waltham, MA, United States) in duplicate, samples with high variability (coefficient of variance (CV) > 10) between reads were repeated in triplicate. The average of the quantification reads was used for RNA concentration normalization. […] All 94 samples were normalized using ultra-pure water to the lowest concentration sample − 14.9 ng/μL. […]
# [2] = test system: early life stage zebrafish (Danio rerio) embryos; assay: Developmental toxicity morphology screen, sealed rotating vial exposure; assay type: in vivo; design: bmd, MO24 / bmd, MORT / bmd, ANY_ / bmd, AXIS / bmd, CRAN / bmd, EDEM / bmd, LTRK / bmd, MUSC / bmdL, ANY_ / bmdU, ANY_ / bmdL, AXIS / bmdU, AXIS / bmdL, CRAN / bmdU, CRAN / bmdL, EDEM / bmdU, EDEM / bmdL, LTRK / bmdU, LTRK / bmdL, MO24 / bmdU, MO24 / bmdL, MORT / bmdU, MORT: unit not given here
# Procedure: (§1) When embryos were 6 hpf they were bleached in groups of 1000 or less to limit bacterial growth in sealed vials. Embryos were placed in a strainer for transfer between solutions in 500 mL containers. […] Pools of eight embryos were placed into 2 mL clear glass screw cap exposure vials with polyvinyl-faced pulp liner (Avantar Radnor, PA, United States) using a glass Pasteur pipette. Excess EM was removed, and 2 mL of fresh EM was immediately added. A total of 10 uL of 200x working stock (in DMSO) was added to each vial, then immediately capped and inverted three times to mix. […] Vials were loaded into a custom 3D printed vial holder for slow end-over-end rotation in a dark 28 °C incubator overnight. […] At 24 hpf, embryos were removed from exposure vials and singulated into 96-well plates loaded with 100 μL chemical-free EM. Each exposure vial group was maintained in plate columns. After loading into 96-well plates, embryos were assessed for 24-hour mortality. For the remainder of the exposure, plates were kept stationary at 28 °C in the dark, until 120 hpf when morphology screening and the larval photo motor response (LPR) assay were conducted, section 2.3.2 and section 2.3.3, respectively.
# Each treatment group was replicated over four vials, resulting in 32 embryos per treatment, split over two replicate 96-well plates per chemical. […] All reported concentrations were nominal water concentrations and are included in SI-T4.
# At 24 hpf embryos were assessed for mortality (MO24). At 120 hpf embryos were assessed for abnormality in […] morphological endpoints: mortality (MORT), edemas (EDEM), bent axis (AXIS), touch response (TCHR), craniofacial (CRAN), muscular/cardiovascular (MUSC), lower trunk (LRTK), brain (BRAN), skin (SKIN), and notochord malformations (NC). Morphological assessments were made by a team of three to four individuals. The team was blinded to the identity, plate layout, and concentrations of the chemicals, thereby minimizing bias in morphological screening assessment. To ensure the assessments were consistent, concentration–response reproducibility of a parathion ethyl quality control plate was performed along with each experimental exposure set up. Details of all measured endpoints can be found at Developmental toxicity zebrafish phenotype atlas. […] Each endpoint was scored as a binary presence/absence and scores were compiled into an “Any effect” endpoint, the presence of abnormality in any individual endpoint.
# The Any effect percent was used to calculate the BMC50, 50 % change relative to the background for each endpoint and chemical. All values were reported as the nominal exposure concentration.
# [3] = test system: zebrafish larvae, 120 hpf; assay: Larval photomotor response (LPR) assay after vial exposure; assay type: in vivo, Danio rerio; settings: for fold_change: LPR
# Procedure: as §1
# Each treatment group was replicated over four vials, resulting in 32 embryos per treatment, split over two replicate 96-well plates per chemical. […] Vial groups of plated larvae were tracked to assess the impact of the vial on the results. All reported concentrations were nominal water concentrations and are included in SI-T4.
# The LPR assay was conducted at 120 hpf. […] Larval movement was tracked throughout minutes 6–24. Animals dead or morphologically abnormal were excluded from the analysis, and if more than 30 % of the wells in a treatment group were excluded, the treatment was removed.
# Movement values were binned into 6s intervals, log normalized and used to calculate area under the curve (AUC). AUC values from the first cycle after calibration were used to calculate the LEL for each period (light and dark).
# [4] = Fig. 2 heatmap; nominal concentration, exposure 6-24 hpf in vials, summary of all endpoints
# [5] = benchmark dose; morphology endpoint ANY_ (any effect)
# [6] = period dark, round 1, conc 3.125
# [7] = period dark, round 1, conc 6.25
# [8] = period dark, round 1, conc 12.5
# [9] = period light, round 1, conc 3.125
# [10] = period light, round 1, conc 6.25
# [11] = period light, round 1, conc 12.5
# [12] = endpoint MORT; lower limit of benchmark dose
# [13] = endpoint MORT; upper limit of benchmark dose
# [14] = morphology endpoint EDEM; benchmark dose
# [15] = morphology endpoint EDEM; lower limit of benchmark dose
# [16] = morphology endpoint EDEM; upper limit of benchmark dose
Structure (SMILES),BMC50 MO24 (mortality at 24 hpf) ([2]; Fig. 2; nominal concentration),BMC50 MORT (mortality at 120 hpf) ([2]; Fig. 2; nominal concentration) [µM],"BMC50 Any effect [2, 4] [µM]",any effect BMD50 ([2]; SI-T5) [µM],"bmd, ANY_ [2, 5]","fold_change [3, 6]","fold_change [3, 7]","fold_change [3, 8]","fold_change [3, 9]","fold_change [3, 10]","fold_change [3, 11]",BMC50 EDEM (pericardial and/or yolk sac edema at 120 hpf) ([2]; Fig. 2; nominal concentration) [µM],"bmd, MORT ([2]; endpoint MORT; benchmark dose)","bmdL, MORT [2, 12]","bmdU, MORT [2, 13]","bmd, EDEM [2, 14]","bmdL, EDEM [2, 15]","bmdU, EDEM [2, 16]","fold_change ([3]; period dark, round 1, conc 25)","fold_change ([3]; period light, round 1, conc 25)",further results
"Cc1ccc(C)c2c(C)cccc12 [1,4,5-trimethylnaphthalene]",27.7 µM,23.5,19.7,19.74,19.7402,0.1634,0.08749,-0.2344,-0.0344,0.04487,0.5316,–,–,–,–,–,–,–,–,–,"nt5dc2 expression [1]: decreased expression; bmd, MO24 ([2]; benchmark dose; endpoint MO24): 27.7283; bmd, MORT ([2]; benchmark dose; endpoint MORT): 23.5002; LPR behavioral effect ([3]; 120 hpf, light/dark periods, result in words): hyperactivity during the light period; fold_change ([3]; period dark, round 2, conc 12.8): 0.03668; fold_change ([3]; period dark, round 2, conc 16): -0.1932; fold_change ([3]; period dark, round 2, conc 20): 0.4872; fold_change ([3]; period light, round 2, conc 12.8): 0.4664; fold_change ([3]; period light, round 2, conc 16): -0.1141; fold_change ([3]; period light, round 2, conc 20): 1.443"
"CC(C)(C)c1ccc2ccc(C(C)(C)C)cc2c1 [2,7-di-tert-butylnaphthalene]",no MO24 BMC50,41.3,24.7,24.66,24.6598,-0.2175,-0.4542,-0.5803,0.7527,0.7301,0.5841,33.6,41.3049,34.7649,51.9197,33.6463,26.4386,67.8341,-1.44,0.3464,–
CCCCc1ccc2ccccc2c1 [2-butylnaphthalene],45.9 µM,29.2,13.8,13.76,–,-0.7788,-1.395,-2.279,0.2651,-0.6707,0.432,37.1,29.2083,24.1073,36.5916,37.0933,25.0511,73.9212,–,–,"BMC50 AXIS (curved or bent body axis at 120 hpf) ([2]; Fig. 2; nominal concentration): 31.7 µM; BMC50 CRAN (craniofacial malformation at 120 hpf) ([2]; Fig. 2; nominal concentration): 32.3 µM; BMC50 LTRK (lower trunk and/or caudal fin at 120 hpf) ([2]; Fig. 2; nominal concentration): 32.6 µM; bmd, MO24 ([2]; endpoint MO24; benchmark dose): 45.9226; bmdL, MO24 ([2]; endpoint MO24; lower limit of benchmark dose): 34.5575; bmdU, MO24 ([2]; endpoint MO24; upper limit of benchmark dose): 71.8256; bmd, ANY_ ([2]; morphology endpoint ANY_; benchmark dose): 13.7563; bmdL, ANY_ ([2]; morphology endpoint ANY_; lower limit of benchmark dose): 11.3562; bmdU, ANY_ ([2]; morphology endpoint ANY_; upper limit of benchmark dose): 16.7056; bmd, AXIS ([2]; morphology endpoint AXIS; benchmark dose): 31.7332; bmdL, AXIS ([2]; morphology endpoint AXIS; lower limit of benchmark dose): 20.8074; bmdU, AXIS ([2]; morphology endpoint AXIS; upper limit of benchmark dose): 68.8189; bmd, CRAN ([2]; morphology endpoint CRAN; benchmark dose): 32.2639; bmdL, CRAN ([2]; morphology endpoint CRAN; lower limit of benchmark dose): 21.7357; bmdU, CRAN ([2]; morphology endpoint CRAN; upper limit of benchmark dose): 64.257; bmd, LTRK ([2]; morphology endpoint LTRK; benchmark dose): 32.6419; bmdL, LTRK ([2]; morphology endpoint LTRK; lower limit of benchmark dose): 22.6339; bmdU, LTRK ([2]; morphology endpoint LTRK; upper limit of benchmark dose): 59.8583"
Cc1ccc2ccccc2c1 [2-methylnaphthalene],–,–,–,–,–,0.03896,-0.06284,0.2024,-0.3603,-0.05115,0.6486,–,–,–,–,–,–,–,0.07059,0.2057,"morphological effects (BMC50 for any morphological endpoint) ([2]; 0-50 μM, result in words): no morphological BMC50 values; fold_change ([3]; period dark, round 1, conc 50): -0.2156; fold_change ([3]; period light, round 1, conc 50): 0.2253"
